Reference: article PMC5493200 (ACS infectious diseases, 2016)

Experiments:
[1] = target: Purified 70S M. smegmatis bacterial ribosomes (Mycolicibacterium smegmatis, UniProt A0QSG6); experiment: Ribosomal translation inhibition; assay type: biochemical; settings: inhibits luciferase activity by 50%
[2] = tested on: M. tuberculosis H37Rv; experiment: microbe, parasite or virus in culture; assay type: cell-based, Mycobacterium tuberculosis; settings: for H37Rv MIC: Tables 1-4 and text; for MIC (H37Rv): Table 5
[3] = tested on: Rv1258c efflux pump; settings: H37Rv MIC / Rv1258c KO MIC
[4] = tested on: M. tuberculosis H37Rv Rv1258c knockout (KO); experiment: microbe, parasite or virus in culture; assay type: cell-based; settings: Tables 1-4 and text; 7 days, 7H9 broth
[5] = heteroaryl ring of side chain; ref not given; cited from earlier work
[6] = Maximum tolerated dose / tolerability; assay type: in vivo, mouse; settings: mice; for Maximum tolerated dose (MTD): subcutaneous
[7] = tested on: M. tuberculosis Erdman; experiment: Mouse model of acute tuberculosis infection; assay type: in vivo; settings: 9 days, vs control
[8] = tested on: M. bovis BCG; assay type: cell-based; settings: average of 2–3 replicates, standard deviation in parenthesis
[9] = Protein binding, mouse; assay type: in vitro ADME
[10] = tested on: HepG2 cells; experiment: Mammalian cytotoxicity; assay type: cell-based
[11] = Protein binding, human; assay type: in vitro ADME
[12] = Microsomal stability, mouse; assay type: in vitro ADME; settings: mouse liver microsomes
[13] = Microsomal stability, human; assay type: in vitro ADME; settings: human liver microsomes

Chain of Purified 70S M. smegmatis bacterial ribosomes (A0QSG6 whole entry): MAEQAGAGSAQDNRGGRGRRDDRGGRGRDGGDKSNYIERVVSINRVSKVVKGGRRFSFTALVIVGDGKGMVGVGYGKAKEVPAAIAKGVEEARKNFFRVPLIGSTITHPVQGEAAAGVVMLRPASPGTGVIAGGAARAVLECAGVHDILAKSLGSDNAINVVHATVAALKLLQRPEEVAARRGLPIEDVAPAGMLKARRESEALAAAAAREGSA

CN[C@@H]1[C@H](O)[C@H](NC)[C@H]2O[C@]3(O)[C@H](O[C@@H]2[C@H]1O)O[C@H](C)C[C@H]3NC(=O)Cc1ncc[nH]1.Cl.Cl.Cl [Compound 21, 3′-Dihydro-3′-deoxy-3′(R)-(1H-imidazol-2-yl)acetylamino spectinomycin trihydrochloride]
Ribosome IC50 [1]: 0.56 µg/mL | H37Rv MIC [2]: 12.5 µg/mL | Efflux Ratio [3]: 2 | Rv1258c KO MIC [4]: 6.3 µg/mL | pKa [5]: 7.0

Br.Br.Br.CNC1C(O)C(NC)C2OC3(O)C(NC(=O)Cc4nc5ccccc5s4)CC(C)OC3OC2C1O [Compound 25, 3′-Dihydro-3′-deoxy-3′(R)-(benzo[d]thiazol-2-yl)acetylamino spectinomycin trihydrobroride]
Ribosome IC50 [1]: 1.09 µg/mL | Maximum tolerated dose (MTD) [6]: mild toxicity noted when dosage exceeded 100 mg/kg | H37Rv MIC [2]: 1.6 µg/mL | Efflux Ratio [3]: 2 | Rv1258c KO MIC [4]: 0.8 µg/mL

Br.Br.Br.CN[C@@H]1[C@H](O)[C@H](NC)[C@H]2O[C@]3(O)[C@H](O[C@@H]2[C@H]1O)O[C@H](C)C[C@H]3NC(=O)Cc1nc2ccccc2[nH]1 [Compound 27, 3′-Dihydro-3′-deoxy-3′(R)-(1H-benzo[d]imidazol-2-yl)acetylamino spectinomycin trihydrobroride]
Ribosome IC50 [1]: 0.26 µg/mL | Reduction of bacterial load in lungs ([7]; first new trial (Figure 3B), 200 mg/kg BID, subcutaneous): 1.6 logs | Post Antibiotic Effect [8]: 137 h | MIC (H37Rv) [2]: 1.6 µg/mL | H37Rv MIC [2]: 1.6 µg/mL | Efflux Ratio [3]: 1 | Protein binding mouse [9]: 12.1% | Cytotoxicity (HepG2) [10]: >400 µg/mL | Protein binding human [11]: 26.3% | Microsomal stability t1/2 mouse [12]: >50 h | Rv1258c KO MIC [4]: 1.6 µg/mL | Microsomal stability t1/2 human [13]: >50 h | pKa [5]: 5.6

CN[C@@H]1[C@H](O)[C@H](NC)[C@H]2O[C@]3(O)[C@H](O[C@@H]2[C@H]1O)O[C@H](C)C[C@H]3NC(=O)Cc1ccc(O)cn1.Cl.Cl.Cl [Compound 39, 3′-Dihydro-3′-deoxy-3′(R)-(5-hydroxypyridin-2-yl)acetylamino spectinomycin trihydrochloride]
Ribosome IC50 [1]: 0.84 µg/mL | Maximum tolerated dose (MTD) [6]: > 400 mg/kg | Reduction of bacterial load in lungs ([7]; second new trial (Figure 3C), 200 mg/kg BID, subcutaneous): 1.5 log | Post Antibiotic Effect [8]: 20 (18) h | MIC (H37Rv) [2]: 1.6 µg/mL | H37Rv MIC [2]: 1.6 µg/mL | Efflux Ratio [3]: 0.5 | Protein binding mouse [9]: 30.7% | Cytotoxicity (HepG2) [10]: >400 µg/mL | Protein binding human [11]: 35.1% | Microsomal stability t1/2 mouse [12]: 13.4 h | Rv1258c KO MIC [4]: 3.1 µg/mL | Microsomal stability t1/2 human [13]: 7.4 h

CN[C@@H]1[C@H](O)[C@H](NC)[C@H]2O[C@]3(O)[C@H](O[C@@H]2[C@H]1O)O[C@H](C)C[C@H]3NC(=O)Cc1ccc(OC(F)(F)F)cn1.Cl.Cl.Cl [Compound 41, 3′-Dihydro-3′-deoxy-3′(R)-(5-(trifluoromethoxy)pyridin-2-yl)acetylamino spectinomycin trihydrochloride]
Ribosome IC50 [1]: 0.96 µg/mL | Well tolerated dosing ([6]; efficacy trial dosing (Table S3)): 100 mg/kg | Reduction of bacterial load in lungs ([7]; second new trial (Figure 3C), 100 mg/kg): 1.1 log | Post Antibiotic Effect [8]: 61 (17) h | MIC (H37Rv) [2]: 3.1 µg/mL | H37Rv MIC [2]: 3.1 µg/mL | Efflux Ratio [3]: 4 | Protein binding mouse [9]: 58.4% | Cytotoxicity (HepG2) [10]: >400 µg/mL | Protein binding human [11]: 51.4% | Microsomal stability t1/2 mouse [12]: 27.0 h | Rv1258c KO MIC [4]: 0.8 µg/mL | Microsomal stability t1/2 human [13]: 22.4 h
